Laboratory results from patent US11161850B2, “Fused pyrazine derivatives as A2A / A2B inhibitors” (Incyte Corporation, priority 2018, dated 2021).
Read-outs that look alike come from different tables or passages of the source.

Legend:
Adenosine A2A = Adenosine A2A (Homo sapiens (Human), UniProt P29274); experiment: A2A Tag-Lite HTRF assay; format: binding
Text: Example C. A2A Tag-Lite® HTRF Assay

[1] = biological target: human adenosine A2B receptor (Homo sapiens (Human), UniProt P29275); experiment: Adenosine A2B Receptor Cyclic AMP GS Assay; format: cell-based; conditions: A2B_cAMP_EC50 (nM), HEK-293 cells expressing human A2B, agonist NECA 12 nM
Method in brief: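 Stably transfected HEK-293 cells were preincubated with compound for 30 min at room temperature, then stimulated with 12 nM NECA for 60 min. cAMP accumulation was read by FRET (665/620 ratio), and EC50 was fitted from percent of control versus log compound concentration.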

[2] = Tag-Lite Adenosine A2A labeled cells, fluorescent ligand 12.5 nM, read-out: A2A_Ki

human adenosine A2B receptor, sequence (P29275 whole entry): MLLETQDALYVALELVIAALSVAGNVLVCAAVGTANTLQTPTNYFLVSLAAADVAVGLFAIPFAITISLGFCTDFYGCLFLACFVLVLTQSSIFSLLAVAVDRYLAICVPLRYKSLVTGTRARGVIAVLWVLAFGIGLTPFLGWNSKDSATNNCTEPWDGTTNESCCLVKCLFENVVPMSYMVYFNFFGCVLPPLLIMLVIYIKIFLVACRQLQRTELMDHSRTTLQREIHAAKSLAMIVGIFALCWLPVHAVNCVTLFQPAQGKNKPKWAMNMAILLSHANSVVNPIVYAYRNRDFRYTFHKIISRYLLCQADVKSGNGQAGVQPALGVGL
Adenosine A2A, sequence (P29274 whole entry): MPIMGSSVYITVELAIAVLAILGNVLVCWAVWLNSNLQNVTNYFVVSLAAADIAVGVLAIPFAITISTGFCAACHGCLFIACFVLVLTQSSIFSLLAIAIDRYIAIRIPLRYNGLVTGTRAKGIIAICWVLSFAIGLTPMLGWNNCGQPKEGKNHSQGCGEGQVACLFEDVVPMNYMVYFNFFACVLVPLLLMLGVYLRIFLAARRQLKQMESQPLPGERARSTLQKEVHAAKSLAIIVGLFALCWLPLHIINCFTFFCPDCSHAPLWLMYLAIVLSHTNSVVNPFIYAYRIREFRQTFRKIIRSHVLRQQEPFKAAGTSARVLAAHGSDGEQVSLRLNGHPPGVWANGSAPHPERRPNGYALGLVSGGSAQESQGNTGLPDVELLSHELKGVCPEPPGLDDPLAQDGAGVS

Row | Compound | Ki (Adenosine A2A; [2]) [nM] | EC50 [1] [nM] | Ki (Adenosine A2A) [nM]
1 | CS(=O)(=O)CCn1cc(-c2cccc(F)c2Cc2nc3c(N)nc(-c4cccc(C#N)c4F)cn3n2)cn1 [Example 112, 3-(8-amino-2-(2-fluoro-6-(1-(2-(methylsulfonyl)ethyl)-1H-pyrazol-4-yl)benzyl)-[1,2,4]triazolo[1,5-a]pyrazin-6-yl)-2-fluorobenzonitrile] | < 10 | < 10 | –
2 | CN(C)C(=O)Cn1cc(-c2cccc(F)c2Cc2nc3c(N)nc(-c4cccc(C#N)c4F)cn3n2)cn1 [Example 114, 2-(4-(2-((8-amino-6-(3-cyano-2-fluorophenyl)-[1,2,4]triazolo[1,5-a]pyrazin-2-yl)methyl)-3-fluorophenyl)-1H-pyrazol-1-yl)-N,N-dimethylacetamide] | < 10 | 10 to 100 | –
3 | N#Cc1cccc(-c2cn3nc(Cc4c(F)cccc4-c4cnn(CC(N)=O)c4)nc3c(N)n2)c1F [Example 115, 2-(4-(2-((8-amino-6-(3-cyano-2-fluorophenyl)-[1,2,4]triazolo[1,5-a]pyrazin-2-yl)methyl)-3-fluorophenyl)-1H-pyrazol-1-yl)acetamide] | < 10 | < 10 | –
4 | CN[C@H]1C[C@H](n2cc(-c3cccc(F)c3Cc3nc4c(N)nc(-c5cccc(C#N)c5F)cn4n3)cn2)C1 [Example 116, 3-(8-amino-2-(2-fluoro-6-(1-((trans)-3-(methylamino)cyclobutyl)-1H-pyrazol-4-yl)benzyl)-[1,2,4]triazolo[1,5-a]pyrazin-6-yl)-2-fluorobenzonitrile] | < 10 | 10 to 100 | –
5 | N#CCCn1cc(-c2cccc(F)c2Cc2nc3c(N)nc(-c4cccc(C#N)c4F)cn3n2)cn1 [Example 117, 3-(8-amino-2-(2-(1-(2-cyanoethyl)-1H-pyrazol-4-yl)-6-fluorobenzyl)-[1,2,4]triazolo[1,5-a]pyrazin-6-yl)-2-fluorobenzonitrile] | < 10 | < 10 | –
6 | N#Cc1cccc(-c2cn3nc(Cc4c(F)cccc4-c4cnn(CC(=O)N5CC(O)C5)c4)nc3c(N)n2)c1F [Example 118, 3-(8-amino-2-(2-fluoro-6-(1-(2-(3-hydroxyazetidin-1-yl)-2-oxoethyl)-1H-pyrazol-4-yl)benzyl)-[1,2,4]triazolo[1,5-a]pyrazin-6-yl)-2-fluorobenzonitrile] | < 10 | < 10 | –
7 | Cc1cccnc1COc1nc2c(N)nc(-c3cccc(C#N)c3)c(-c3ccncn3)n2n1 [Example 119, 3-(8-amino-2-((3-methylpyridin-2-yl)methoxy)-5-(pyrimidin-4-yl)-[1,2,4]triazolo[1,5-a]pyrazin-6-yl)benzonitrile] | < 10 | < 10 | –
8 | N#Cc1cccc(-c2cn3nc(Cc4ncccc4Nc4cnn(Cc5ccncc5)c4)nc3c(N)n2)c1F [Example 120, 3-(8-Amino-2-((3-((1-(pyridin-4-ylmethyl)-1H-pyrazol-4-yl)amino)pyridin-2-yl)methyl)-[1,2,4]triazolo[1,5-a]pyrazin-6-yl)-2-fluorobenzonitrile] | < 10 | 10 to 100 | –
9 | N#Cc1cccc(-c2cn3nc(Cc4ncccc4Nc4cnn(C5CCOCC5)c4)nc3c(N)n2)c1F [Example 121, 3-(8-amino-2-((3-((1-(tetrahydro-2H-pyran-4-yl)-1H-pyrazol-4-yl)amino)pyridin-2-yl)methyl)-[1,2,4]triazolo[1,5-a]pyrazin-6-yl)-2-fluorobenzonitrile] | < 10 | 10 to 100 | –
10 | Cn1cc(-c2cccnc2Cc2nc3c(N)nc(-c4cccc(C#N)c4)c(-c4ccncn4)n3n2)cn1 [Example 122, 3-(8-Amino-2-((3-(1-methyl-1H-pyrazol-4-yl)pyridin-2-yl)methyl)-5-(pyrimidin-4-yl)-[1,2,4]triazolo[1,5-a]pyrazin-6-yl)benzonitrile] | < 10 | 10 to 100 | –
11 | N#Cc1cccc(-c2nc(N)c3nc(Cc4ccccc4CN4CC[C@H](O)C4)nn3c2-c2ccncn2)c1 [Example 123, (S)-3-(8-Amino-2-(2-((3-hydroxypyrrolidin-1-yl)methyl)benzyl)-5-(pyrimidin-4-yl)-[1,2,4]triazolo[1,5-a]pyrazin-6-yl)benzonitrile] | < 10 | 10 to 100 | –
12 | N#Cc1cccc(-c2nc(N)c3ncnn3c2-c2ccc3nccn3c2)c1 [Example 124, 3-(8-Amino-5-(imidazo[1,2-a]pyridin-6-yl)-[1,2,4]triazolo[1,5-a]pyrazin-6-yl)benzonitrile] | < 10 | < 10 | –
13 | N#Cc1cccc(-c2nc(N)c3nc(C(=O)N4CCC4)nn3c2-c2ccncc2F)c1 [Example 125, 3-(8-amino-2-(azetidine-1-carbonyl)-5-(3-fluoropyridin-4-yl)-[1,2,4]triazolo[1,5-a]pyrazin-6-yl)benzonitrile] | < 10 | 10 to 100 | –
14 | Cc1cc(-c2c(-c3cccc(C#N)c3F)nc(N)c3nc(C(O)c4c(F)cccc4F)nn23)cc(C)n1 (centres unmarked) [Example 126, 3-(8-amino-2-((2,6-difluorophenyl)(hydroxy)methyl)-5-(2,6-dimethylpyridin-4-yl)-[1,2,4]triazolo[1,5-a]pyrazin-6-yl)-2-fluorobenzonitrile] | < 10 | 10 to 100 | –
15 | [2H]C([2H])([2H])n1nc(-c2c(-c3cccc(C#N)c3)nc(N)c3nc(Cc4ccccn4)nn23)ccc1=O [Example 127, 3-(8-amino-5-(1-(methyl-d3)-6-oxo-1,6-dihydropyridazin-3-yl)-2-(pyridin-2-ylmethyl)-[1,2,4]triazolo[1,5-a]pyrazin-6-yl)benzonitrile] | – | < 10 | < 10
16 | COc1cccc(Cc2nc3c(N)nc(-c4cccc(C#N)c4)c(-c4ccc(=O)n(C)n4)n3n2)n1 [Example 128, 3-(8-amino-2-((6-methoxypyridin-2-yl)methyl)-5-(1-methyl-6-oxo-1,6-dihydropyridazin-3-yl)-[1,2,4]triazolo[1,5-a]pyrazin-6-yl)benzonitrile] | < 10 | 10 to 100 | –
